The text below walks through data of article PMC10433220, “Oil palm kernel globulin antihypertensive peptides: isolation and characterization, ACE inhibition mechanisms, zinc-chelating activity, security and stability” (Frontiers in Pharmacology, 2023).

Read-outs that look alike come from different tables or passages of the source. Where no end group is shown, it is not given here.

Data set [1] is described as follows: Zinc solubility of peptide-Zn complexes during simulated gastrointestinal digestion. The class given is in vitro ADME. Conditions: simulated intestinal digestion, from 120 to 240 min; p < 0.05. Here is the method: Simultaneously, 5 mg of the DOPKGH peptide-Zn complexes was mixed with 50 mL of simulated gastric digested mucus (pH 2.00 ± 0.10) ([Sun et al., 2021]). After shaking at 37°C and 135 rpm for 90 min, Na2HPO4 (0.5 mol/L) was added and the mixture was quickly stirred until the pH of the digest increased to 6.80 ± 0.10. […] The stability of DOPKGH peptide-Zn complexes was expressed as the residual zinc concentration after digestion and as a percentage of the zinc concentration before digestion.

For data set [2], the target named is T1, ACE (Oryctolagus cuniculus, UniProt P12822).
T1 construct: purchased Sigma (St. Louis, MO, United States)
T1 sequence (P12822 34-1310): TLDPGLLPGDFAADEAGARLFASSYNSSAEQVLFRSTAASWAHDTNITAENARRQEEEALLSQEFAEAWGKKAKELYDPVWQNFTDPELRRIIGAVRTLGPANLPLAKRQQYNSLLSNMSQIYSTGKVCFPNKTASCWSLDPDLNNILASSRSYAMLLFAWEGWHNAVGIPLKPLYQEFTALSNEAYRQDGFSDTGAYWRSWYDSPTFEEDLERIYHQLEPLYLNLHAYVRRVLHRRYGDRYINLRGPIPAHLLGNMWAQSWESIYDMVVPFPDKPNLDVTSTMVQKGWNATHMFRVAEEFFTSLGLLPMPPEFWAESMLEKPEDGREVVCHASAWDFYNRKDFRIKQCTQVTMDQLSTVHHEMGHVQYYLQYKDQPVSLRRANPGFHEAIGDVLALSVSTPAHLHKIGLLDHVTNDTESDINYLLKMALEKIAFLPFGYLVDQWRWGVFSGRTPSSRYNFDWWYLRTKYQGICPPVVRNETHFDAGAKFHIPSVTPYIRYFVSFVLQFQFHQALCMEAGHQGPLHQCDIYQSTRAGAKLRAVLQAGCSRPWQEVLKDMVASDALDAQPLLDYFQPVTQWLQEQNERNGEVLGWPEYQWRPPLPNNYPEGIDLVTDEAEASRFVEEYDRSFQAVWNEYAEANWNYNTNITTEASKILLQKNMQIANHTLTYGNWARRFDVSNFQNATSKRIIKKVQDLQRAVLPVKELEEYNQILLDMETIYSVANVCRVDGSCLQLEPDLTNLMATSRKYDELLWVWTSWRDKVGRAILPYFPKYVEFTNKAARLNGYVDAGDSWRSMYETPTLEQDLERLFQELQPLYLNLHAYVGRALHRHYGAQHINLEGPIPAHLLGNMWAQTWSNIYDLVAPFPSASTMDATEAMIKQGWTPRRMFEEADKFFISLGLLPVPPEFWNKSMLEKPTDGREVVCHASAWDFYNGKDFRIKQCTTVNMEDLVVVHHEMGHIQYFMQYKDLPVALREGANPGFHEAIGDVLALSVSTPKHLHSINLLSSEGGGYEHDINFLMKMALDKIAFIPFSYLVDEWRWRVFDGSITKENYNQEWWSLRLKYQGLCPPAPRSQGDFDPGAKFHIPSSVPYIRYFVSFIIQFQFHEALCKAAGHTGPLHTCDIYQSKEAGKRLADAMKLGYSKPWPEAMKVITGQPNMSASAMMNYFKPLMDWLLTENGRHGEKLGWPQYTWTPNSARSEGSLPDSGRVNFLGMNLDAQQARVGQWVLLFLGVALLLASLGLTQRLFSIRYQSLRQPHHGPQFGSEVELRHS
In words: ACE inhibitory activity (HHL substrate, hippuric acid absorbance at 228 nm). The class given is biochemical. The conditions noted are these: synthesized peptide, untreated; ACE 25 mU, HHL 8.3 mmol/L, 37°C, 60 min, absorbance 228 nm; from regression y = 10.985 ln(x) ‒ 0.8859, R2 = 0.9458; read-out: ACE inhibition capacity (IC50). How it is done:
(§1) ACE inhibitory activity was determined using the procedure described by [Zaharuddin et al. (2022)]. Briefly, ACE (25 mU) was pre-incubated at 37°C for 10 min. Then ACE (75 µL), 225 µL of HHL (8.3 mmol/L), and the peptide solution (75 µL) were mixed and stirred at 75 rpm and 37°C for 60 min. The reaction was stopped by adding 375 µL of HCl (1 mol/L). Afterward 2.1 mL of ethyl acetate was added to extract the hippuric acid produced. The mixture was centrifuged at 14,000 g for 150 s. Subsequently, 1 mL of the upper solution (ethyl acetate extraction) was transferred to a glass test tube and heated at 120°C for 32 min. The tube was cooled to 25°C, deionized water (1 mL) was added, and the absorbance was measured at 228 nm. The control group was subjected to the same procedure, but without samples. The ACE inhibition ability of the samples was defined as the percentage of the difference in absorbance at 228 nm between the sample and control as compared to the absorbance at 228 nm of the control. The concentration of peptides required to inhibit half of the ACE activity was defined as the IC50.

The target in data set [3] is T1, ACE. The data set can be described thus: Stability of ACE inhibitory activity under simulated gastrointestinal hydrolysis. The class given is in vitro ADME. Here is the method:
as §1
The simulation intestinal digest mucus (pH 6.80 ± 0.10) was composited of 6 g bile salt, 0.07 g pancreatin, 12.5 g NaHCO3, and 200 mL ultrapure water. […] The ACE inhibitory activity of the DOPKGH peptide was determined using untreated DOPKGH peptides for comparison.

Data set [4] deals with T1, ACE. On the set-up: method as in 2 sources, one per row (each row's own in cited_ref): ref Wang et al., 2021 ||| ref Wei et al., 2022. The conditions noted are these: cited from earlier work.
The nature of data set [5]: Zn-chelating ability (4-(2-Pyridinazo)-resorcinol method). The format is physicochemical. The conditions noted are these: 350 μg sample, zinc sulfate 0.25 mmol/L, DTT, HEPES-KOH buffer, 37°C, 12 min, PAR method, absorbance 500 nm; mean ± SD, at least three repeats. How it is done:
DOPKGH peptides (350 μg), 0.5 mL zinc sulfate solution (0.25 mmol/L), 0.5 mL DTT (8 mmol/L), 1 mL HEPES-KOH buffer (100 μmol/L), and 8 mL dH2O were mixed thoroughly ([Li et al., 2023]). After stirring at 175 r/min and 37°C for 12 min, the zinc concentration of the reaction solution was measured using the 4-(2-Pyridinazo)-resorcinol method ([Udechukwu et al., 2018]). The standard regression curve of the zinc concentration (x, μg/mL) with absorbance at 500 nm (y) was y = 0.0901n(x) + 0.1012, and R^2 = 0.9802 ([Li et al., 2023]). The zinc chelation rate was defined as the reduction of zinc ions in the reaction solution per unit mass of sample (mg/g).
Amino acid sequence identification was conducted using a Q Exactive hybrid quadrupole orbitrap mass spectrometer (Thermo Fisher, Bremen, Germany) coupled with Peak-Studio-7.5-De-Novo™ software (Bioinformatics Solutions, Inc., Waterloo, Canada) according to the method described by [Li et al. (2022)]. The DOPKGH sequences were verified by matching with the sequences of Elaeis guineensis recorded in the Biotechnology Information Database (Bethesda, MD, United States). The Zn-chelating ability of the obtained sequences was measured using the 4-(2-Pyridinazo)-resorcinol method ([Udechukwu et al., 2018]). […] In addition, the physicochemical characteristics of the screened DOPKGH sequences were analyzed using the AHTPDB database.

The target of data set [6] is T1, ACE. The conditions noted are these: Val residue at the N-terminal; peptide from King Bolete mushrooms; ref Kaprasob et al., 2022; cited from earlier work. The source says:
Moreover, Lys or Arg residues in C-terminal tripeptide are instrumental in the ACE-inhibitory ability of peptides ([Urbizo-Reyes et al., 2022]).

With `O=C([O-])[C@H](O)[C@@H](O)[C@H](O)[C@H](O)CO.O=C([O-])[C@H](O)[C@@H](O)[C@H](O)[C@H](O)CO.[Zn+2]` [zinc gluconate, Zinc gluconate], in data set [1], the “Zinc solubility compared with zinc sulfate” value is recorded as “higher zinc solubility than that of zinc sulfate”.

As a reminder, the IC50 is the point on the concentration scale where inhibition reaches its midpoint. Consider EVPQAYIP, for which the concentration for half-maximal inhibition (IC50) in data set [2] is 103 µM; in data set [3] (simulated gastric digest (pepsin 0.35 mg/mL, pH 2.0) 37°C 80 min, then intestinal digest (pancreatin, bile salt, pH 6.8) 37°C 150 min, regression y = 13.536ln(x) ‒ 17.297, R2 = 0.9528, read-out: IC50 against ACE after gastrointestinal digestion) it was 144 µM. Moreover, the “ACE-inhibitory activity retained after gastrointestinal digestion” value in data set [3] (simulated gastric (pepsin, pH 2.0, 80 min) then intestinal (pancreatin, pH 6.8, 150 min) digestion, 37°C, versus untreated peptide) was 71.23%.

On to GNPLSP, for which the half-maximal inhibitory concentration (IC50) in data set [4] (peptide derived from Arthrospira platensis, ref Wang et al., 2021, read-out: ACE inhibition IC50) was 264 µM.

PHQPLPP: in data set [4] (peptide identified in rubing cheese, ref Wei et al., 2022), the “ACE inhibition IC50” value was 821 µg/mL. Take “QRLERCK [Gln-Arg-Leu-Asp-Arg-Cys-Lys, oligopeptide identified in defatted oil palm kernel globulin hydrolysates]”: the Zinc chelating capacity in data set [5] is listed as 17.30 ± 1.46^g mg/g. As to “VSWNVLQEP [literature peptide identified in King Bolete mushrooms]”, the “Binding energy with ACE” value in data set [6] was -9.1 kcal/mol.
